Values of other authors in US8841334B2, “Compounds as cannabinoid receptor ligands and uses thereof” (priority 2006, dated 2014).

What was measured:
rodent models = rodent models of neuropathic, incisional, and both chronic and acute inflammatory pain
[1] = system: microglial activation and neurotoxicity; settings: in vitro
animal models = animal models of acute thermal pain, persistent pain, inflammatory pain and neuropathic pain
mice = settings: model for post-menopausal osteoporosis
[2] = system: apolipoprotein E knockout mice
rat = rat formalin model of persistent pain

Question: With COc1ccc2c(c1)c(CCN1CCOCC1)c(C)n2C(=O)c1cccc(Cl)c1Cl [GW405833] as the compound, how does the “efficacy in pain models” value (rodent models) read?
Answer: Its value is “efficacious”.

Question: Which “[…]-amyloid-induced microglial activation and neurotoxicity” value [1] does the source give for CCCC(C)(C)c1ccc2c(c1)OC(C)(C)[C@@H]1CC=C(C)C[C@@H]21 [JWH-133] here?
Answer: The value was “abrogated”.

Question: Which analgesic efficacy (animal models) does the source give for CN1CCCCC1Cn1cc(C(=O)c2cc([N+](=O)[O-])ccc2I)c2ccccc21 (stereo not drawn) [AM-1241] here?
Answer: Its analgesic efficacy is “robust analgesic efficacy”.

Question: Which ovariectomy-induced bone loss (mice) does the source give for SR144528 here?
Answer: Its ovariectomy-induced bone loss is “reverse ovariectomy-induced bone loss”.

Question: And the “block of the effects of JWH-133 on microglial activation and neurotoxicity” value [1]?
Answer: The value was “blocked”.

Question: What about the “inhibition of the effects of THC on atherosclerotic lesions” value ([2]; mouse, in vivo) of the same compound?
Answer: The value was “inhibited”.

Question: And the osteoclast activity (osteoclast activity)?
Answer: Its osteoclast activity is “inhibit osteoclast activity”.

Question: With CCCCCCC(C)(C)c1cc(OC)c([C@@H]2C=C(CO)[C@@H]3C[C@H]2C3(C)C)c(OC)c1 [HU-308] as the compound, how does the antinociceptive response (rat) read?
Answer: The antinociceptive response was “elicits an antinociceptive response”.

Question: Which “progression of atherosclerotic lesions” value ([2]; low doses) does the source give for (−)-Δ^9-Tetrahydrocannabinol [THC] here?
Answer: The value was “slowed the progression of atherosclerotic lesions”.
